The text below walks through data of the RepoRT retention time repository.

Structures can show the parent of a compound that is named as a salt.

A short description of this series: RP, Restek Raptor Biphenyl, 100 × 2.1 mm, 2.7 µm, 50 °C, 0.4 mL/min, estimated dead time 0.55 min; A: water + 0.1% formic acid, pH 3; B: methanol + 0.1% formic acid, pH 3; gradient (min/%B) 0/5 1.12/5 6.41/99.5 10.01/99.5. To be noted: stereoisomer not certain.

Turning to `CCCCCCCCCCCCCCCCCC(=O)O` [Stearic acid], the LC retention time was 6.67 min.

`C[C@H](CCC(=O)O)[C@H]1CC[C@H]2[C@@H]3CC[C@@H]4CC(=O)CC[C@]4(C)[C@H]3CC[C@]12C` [3-Oxo-5β-cholanoic Acid]: the LC retention time is 6.93 min. The result for `NCCc1ccc(O)c(O)c1` [DOPAMINE] reads 0.724 min; that for `O=c1[nH]c(=O)c2[nH]cnc2[nH]1` [XANTHINE], 0.933 min.

With `O=C(O)CCCCCCCCC(=O)O` [SEBACATE], the LC retention time was 4.87 min.

With `CC(=O)NC(CC(C)C)C(=O)O` (stereo unspecified) [N-ACETYLLEUCINE], the LC retention time was 3.63 min.

Regarding `CCCCCCCCCCCCC(O)C(=O)O` (stereo unspecified) [2-Hydroxytetradecanoic acid], the LC retention time was 6.09 min.

On to `CC(CCC(=O)O)C1CCC2C3C(=O)CC4CC(=O)CCC4(C)C3CC(=O)C12C` (stereo unspecified) [Dehydrocholic acid], for which the LC retention time is 6.13 min. Under `N#Cc1nn(-c2c(Cl)cc(C(F)(F)F)cc2Cl)c(N)c1S(=O)C(F)(F)F` (stereo unspecified) [Fipronil] stands 5.6 min. `O=C(O)CCC(O)CC(=O)O` (stereo unspecified) [3-Hydroxyhexanedioic Acid]: the LC retention time was 0.954 min.

As to `CCCC[n+]1cccc(S(=O)(=O)[O-])c1` [C4-APS], the LC retention time was 2.67 min. Under `COc1cc(OC)nc(NC(=O)NS(=O)(=O)c2cc(NC=O)ccc2C(=O)N(C)C)n1` [Foramsulfron] stands 5.76 min. Turning to `NC(=O)Cc1c[nH]c2ccccc12` [INDOLE-3-ACETAMIDE], the LC retention time was 3.75 min. As for `O=C(O)CC(O)CC(=O)O` [3-Hydroxyglutaric acid], the LC retention time was 0.77 min. Regarding `Cc1ncc2c(c1O)C(=O)OC2` [4-Pyridoxolactone], the LC retention time is 2.25 min. On to `Cc1cn(C2CC(O)C(CO)O2)c(=O)[nH]c1=O` (stereo unspecified) [THYMIDINE], for which the LC retention time is 2.18 min. Under `Nc1ncnc2c1ncn2C1OC(COP(=O)(O)O)C(OP(=O)(O)O)C1O` (stereo unspecified) [ADENOSINE 3',5'-DIPHOSPHATE] stands 0.695 min. The result for `N#CCNC(=O)c1cnccc1C(F)(F)F` [Flonicamid] reads 3.4 min. Under `O=C(O)CCC(=O)C(=O)O` [α-Ketoglutaric acid] stands 0.722 min. As to `CC(CCC(=O)NCC(=O)O)C1CCC2C3CCC4CC(O)CCC4(C)C3CC(O)C12C` (stereo unspecified) [Glycodeoxycholic acid], the LC retention time was 6.16 min. On to `CC(C)CCCCCCCCCCCCCCC(=O)O` [Isostearic acid], for which the LC retention time is 6.67 min. Under `Cn1c(=O)c2[nH]cnc2n(C)c1=O` [THEOPHYLLINE] stands 3.54 min; under `CCCCCCCCC=CCCCCCCCCCCCCCC(=O)O` [Nervonic acid], 6.93 min; under `CCCCCCCCCCCCCCCCCCCCCCCCCCC(=O)O` [Heptacosanoic Acid], 7.05 min. The result for `CCCCCCCCCCCCCCCC[n+]1cccc(S(=O)(=O)[O-])c1` [C16-APS] reads 6.34 min. In the case of `O=C(O)c1cc(=O)c2ccccc2[nH]1` [Kynurenic acid], the LC retention time was 3.58 min. The result for `CC=C(C)C(=O)NCC(=O)O` [Tiglyl Glycine] reads 2.95 min; that for `O=c1[nH]c2c(c(=O)n1C1CCCCC1)CCC2` [Lenacil], 5.48 min; that for `CCCCCCCCCCCCCCCCCCCCCCCCCCCCCC(=O)O` [Melissic acid], 7.12 min. Under `CC(=O)NC(Cc1c[nH]c2ccccc12)C(=O)O` (stereo unspecified) [N-ACETYLTRYPTOPHAN] stands 4.12 min. As to `CC(=O)NC(Cc1ccccc1)C(=O)O` (stereo unspecified) [N-ACETYLPHENYLALANINE], the LC retention time was 4.06 min. Regarding `O=C(O)CCCC(=O)O` [Glutaric acid], the LC retention time was 1.37 min. Under `CC(CCC(=O)NCCS(=O)(=O)O)C1CCC2C3CCC4CC(O)CCC4(C)C3CC(O)C12C` (stereo unspecified) [Taurodeoxycholic acid] stands 6.16 min; under `COc1cc(CC(O)C(=O)O)ccc1O` (racemic) [DL-Vanillactic acid lithium salt hydrate], 3.04 min; under `CC(C)C1CCC(Cc2ccc(Cl)cc2)C1(O)Cn1cncn1` (stereo unspecified) [Ipconazole], 6.21 min. The result for `CC(C(=O)O)C(O)(CC(=O)O)C(=O)O` (racemic) [Trisodium 2-methylcitrate, racemic mixture of diastereomers] reads 1.03 min. Under `CC1(C)CCC(=Cc2ccc(Cl)cc2)C1(O)Cn1cncn1` (stereo unspecified) [Triticonazole] stands 5.93 min; under `CSCCC(NC(C)=O)C(=O)O` (stereo unspecified) [N-ACETYLMETHIONINE], 3.04 min; under `O=C(O)Cc1cc(O)ccc1O` [HOMOGENTISATE], 1.47 min. On to `NC(=O)C1CCCN1C(=O)C(Cc1cnc[nH]1)NC(=O)C1CCC(=O)N1` (stereo unspecified) [THYROTROPIN RELEASING HORMONE], for which the LC retention time is 1.99 min. Regarding `CCCCCC[n+]1cccc(S(=O)(=O)[O-])c1` [C6-APS], the LC retention time is 3.92 min. Under `CCCCC(O)(Cn1cncn1)c1ccc(Cl)cc1Cl` (stereo unspecified) [Hexaconazole] stands 5.98 min; under `CC(CCC(=O)NCCS(=O)(=O)O)C1CCC2C3C(O)CC4CC(O)CCC4(C)C3CC(O)C12C` (stereo unspecified) [Taurocholic acid sodium salt hydrate], 5.83 min; under `O=C(O)CCCCCCC(O)CC(=O)O` (stereo unspecified) [3-Hydroxy Sebacic Acid], 3.95 min.

For the compound `CC(C)CC(O)C(=O)O` (stereo unspecified) [2-Hydroxyisocaproic acid], the LC retention time was 2.76 min. Regarding `CCCCCC/C=C/CCCCCCCCCC(=O)O` [trans-Vaccenic Acid], the LC retention time is 6.61 min.

`N[C@@H](Cc1ccc(O)c(O)c1)C(=O)O` [L-DOPA]: the LC retention time was 0.702 min. As for `CCCC(C(=O)O)C(O)C(=O)O` (stereo unspecified) [3-Propylmalic acid], the LC retention time is 2.81 min. The result for `O=c1[nH]c(=O)c2[nH]c(=O)[nH]c2[nH]1` [URATE] reads 0.774 min.

Regarding `O=C(O)C=Cc1cnc[nH]1` [4-Imidazoleacrylic acid], the LC retention time is 0.718 min. The result for `CCCCCCCCCCCCCCCCCCCCCCCCCCCC(=O)O` [Octacosanoic acid] reads 7.08 min. Under `NC(=O)c1ccc[n+](C2OC(COP(=O)([O-])OP(=O)(O)OCC3OC(n4cnc5c(N)ncnc54)C(OP(=O)(O)O)C3O)C(O)C2O)c1` (stereo unspecified) [NADP] stands 0.746 min; under `CCCCCCCCCCCCCCCCCCCCC(=O)O` [Heneicosanoic acid], 6.82 min; under `O=C(O)Cc1ccc(O)cc1` [4-Hydroxyphenylacetic acid], 3.02 min.

Regarding `O=C(O)c1cccnc1C(=O)O` [QUINOLINATE], the LC retention time was 1 min. Under `N[C@@H](Cc1ccc(O)c([N+](=O)[O-])c1)C(=O)O` [3-NITRO-L-TYROSINE] stands 1.92 min.

Turning to `N[C@@H](Cc1cc(I)c(O)c(I)c1)C(=O)O` [3,5-DIIODO-L-TYROSINE], the LC retention time is 3.59 min. Under `CC(=O)C1CCC2C3CC=C4CC(OS(=O)(=O)O)CCC4(C)C3CCC12C` (stereo unspecified) [PREGNENOLONE SULFATE] stands 6.51 min; under `NC(Cc1c[nH]c2ccccc12)C(=O)O` (stereo unspecified) [TRYPTOPHAN], 2.53 min; under `CNC(=N[N+](=O)[O-])NCC1CCOC1` (stereo unspecified) [Dinotefuran], 3.16 min. Regarding `O=C(O)CCCCCCCC(O)C(O)CCCCCCO` (stereo unspecified) [Aleuritic acid], the LC retention time was 4.92 min.

Regarding `CC(C)CCCCCCCCCCCCCCCC(=O)O` [17-Methylstearic acid], the LC retention time was 6.7 min. With `CCCCCCCCCCCCCCCCCCCCCCC(=O)O` [Tricosanoic acid], the LC retention time was 6.91 min.

As to `O=C(O)[C@H](O)Cc1ccccc1` [D-(+)-3-Phenyllactic acid], the LC retention time is 3.79 min. Turning to `CCCCCCCCCC=CC(=O)OC(CC(=O)[O-])C[N+](C)(C)C` [trans-2-Dodecenoyl-L-carnitine], the LC retention time is 5.46 min. Under `O=C(O)CCCCC(=O)O` [Adipic acid] stands 2.5 min. Under `CC(C)C(=O)C(=O)O` [α-Keto Isovaleric Acid Sodium Salt] stands 1.26 min; under `CCCCCCCCCCCCCCC(O)C(=O)O` (stereo unspecified) [2-Hydroxyhexadecanoic acid], 6.3 min.

For the compound `CSCCC(O)C(=O)O` (stereo unspecified) [2-HYDROXY-4-(METHYLTHIO)BUTANOATE], the LC retention time was 2.51 min. The result for `CSCC1OC(n2cnc3c(N)ncnc32)C(O)C1O` (stereo unspecified) [METHYLTHIOADENOSINE] reads 3.18 min; that for `CCC(C)C(=O)NCC(=O)O` (stereo unspecified) [N-(2-Methylbutyryl)glycine], 2.83 min. For the compound `CCCCCCCCCCCCCCC(=O)O` [Pentadecanoic acid], the LC retention time was 6.44 min. Under `CC(O)(CC(=O)O)CC(=O)O` [3-Hydroxy-3-methylglutaric acid] stands 1.01 min. Under `CCCCCCCCCCCCCCCCCCC(=O)O` [Nonadecanoic acid] stands 6.72 min. `Cc1cc2nc3c(=O)[nH]c(=O)nc-3n(CC(O)C(O)C(O)CO)c2cc1C` (stereo unspecified) [RIBOFLAVIN]: the LC retention time is 4.45 min. Under `Cc1cn(C2CC(O)C(COP(=O)(O)OP(=O)(O)OC3OC(CO)C(O)C(O)C3O)O2)c(=O)[nH]c1=O` [DTDP-D-GLUCOSE] stands 0.702 min; under `O=C1O[C@H]([C@@H](O)CO)C(O)=C1O` [L-Ascorbic acid], 3.46 min.

As to `O=c1cccc(O)[nH]1` [2,6-DIHYDROXYPYRIDINE], the LC retention time is 3.3 min. Consider `CC12CCC(=O)C=C1CCC1C2C(O)CC2(C)C1CCC2(O)C(=O)CO` (stereo unspecified) [CORTISOL], for which the LC retention time was 5.49 min. For the compound `CC(CC(=O)O)CC(=O)O` [3-Methylglutaric acid], the LC retention time was 2.43 min.

As for `CCCCCCCCCCCCCCCCCCCC(=O)O` [Arachidic acid], the LC retention time is 6.68 min.
